Where “and” joins values, the source holds several entries; their conditions need not be identical. Equal entries are not always repeated. Values belong to the molecule of their own block, whether it stands above or below them.
Test system: NCI/ADR-RES complex spheroid viability
Assay: Anticancer human tumor NCI/ADR-RES cell line growth inhibition;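 also: spheroids exposed to compounds for 7 days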;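 as to viability, T/C: 100% = DMSO vehicle treated spheroids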
Details: for viability, T/C: stronger effect = lower value
Text: Multicellular complex tumor spheroid response to LSD1 Inhibitor Iadademstat in combination with a variety of drugs and investigational agents in selected tumor cell lines
The current study was undertaken to assess response to LSD1 inhibitors in combination with standard-of-care drugs and investigational agents in solid tumor complex spheroid models as well as in the K-562 leukemia. Complex spheroids include a stromal component modeled by human endothelial cells (HUVEC) and fibroblasts modeled by human mesenchymal stem cells (MSCs). The concentration ranges selected for each drug and investigational agent were based upon clinically achievable concentrations if the clinical Cmax of the agent was known.
Compounds. The drugs and investigational agents used in this study are listed on Table 1. All of the agents used, including staurosporine (NSC755774) and gemcitabine (NSC613327), were obtained from the Developmental Therapeutics Program, NCI. FDA-approved anticancer drugs are available from the NCI at http://dtp.nci.nih.gov/branches/dscb/oncology_drugset_explanation.html. Drugs and investigational agents were >95% pure by proton nuclear magnetic resonance (NMR) and liquid chromatography/mass spectrometry (LC/MS). Stock solutions were prepared at 400x in DMSO, stored at -70 degrees C, and diluted in fresh medium prior to their use. The final concentration of DMSO in cell culture wells never exceeded 0.25% (v/v). The FDA-approved anticancer drug set is available from the Developmental Therapeutics Program at https://dtp.cancer.gov/organization/dscb/obtaining/available_plates.htm. All drugs and investigational agents were tested over a range starting from a high concentration at or near the clinical Cmax and decreasing in half-log increments. If the clinical Cmax for an agent had not been determined, the highest concentration tested was 10 microM.
Cell Lines. The patient-derived cancer cell (PDC) lines: 292921-168-R-J2-PDC, K24384-001-R-PDC, and 521955-158-R2-J5-PDC pancreatic carcinomas, 556581-035-R-J1 ovarian carcinoma, 324938-238-R-J1-PDC, 855422-203-R-J1-PDC and 883617-216-R-J1-PDC urothelial bladder carcinomas, 743489-274-T-PDC renal cell carcinoma, 138582-R-J1 Merkel cell tumor, K60290-347-R-J1 and K57222-313-R-J1-PDC glioblastomas, 653999-131-R-J2-PDC, LG0703-F948-PDC, and 349418-098-R-PDC non-small cell lung carcinomas, 885512-296-R-J2-PDC, 171881-019-R-J1-PDC breast carcinomas and 186277-243-T-J2-PDC and 233499-124-R-J2-PDC colon carcinomas were obtained from the NCI Patient-Derived Models Repository (PDMR, https://pdmr.cancer.gov). The established cell lines NCI/ADR-RES (RRID:CVCL_14520 and OVCAR-5 (RRID:CVCL_1628) ovarian carcinomas, 786-O (RRID:CVCL_1051) and A498 (RRID:CVCL_A498) renal cell carcinoma, NCI-H211 (ATCC, cat. CRL-5824; RRID:CVCL_1529), NCI-H196 (ATCC, cat. CRL-5823, RRID:CVCL_1509), SW 1271 (ATCC, cat. CRL-2177, RRID:CVCL_1716) and NCI-H1876 (ATCC, cat. CRL-5902, RRID:CVCL_1503) small cell lung carcinomas, MDA-MB-231 (RRID:CVCL_0062) and MDA-MB-468 (RRID:CVCL_0419)breast carcinomas (10-12). Pooled donor human umbilical vein endothelial cells (HUVEC, Lonza, cat. CC-2519) and human mesenchymal stem cells (hMSC, Lonza, cat. PT-2501) were purchased from Lonza (Walkersville, MD).
Cell Culture. All cells were maintained in an incubator at 37 degrees C and 5% CO2 with 95% humidity. The PDC lines were cultured according to standard operating procedures established by the NCI PDMR (https://pdmr.cancer.gov). Briefly all PDCs were thawed and cultured in Matrigel-coated flasks prepared with a working solution of 1X Ham's F-12 nutrient mix, without supplementation (Invitrogen, Waltham, MA, cat. 11765054), 100 U/mL penicillin-streptomycin (Invitrogen, cat. 15140122), and 2.5% Matrigel (Corning Inc., Corning, NY, cat. 354248) for the first three passages. […]

[1] = curve of first compound, second compound 0.1 µM
[2] = curve of first compound, second compound 0.316 µM
[3] = curve of first compound, second compound 1 µM
[4] = curve of first compound, second compound 3.16 µM
[5] = curve of first compound, second compound 10 µM
[6] = second compound 0.1 µM, first compound 0.000316 µM
[7] = second compound 0.1 µM, first compound 0.001 µM
[8] = second compound 0.1 µM, first compound 0.00316 µM
[9] = second compound 0.1 µM, first compound 0.01 µM
[10] = second compound 0.1 µM, first compound 0.0316 µM
[11] = second compound 0.1 µM, first compound 0.1 µM
[12] = second compound 0.316 µM, first compound 0.000316 µM
[13] = second compound 0.316 µM, first compound 0.001 µM
[14] = second compound 0.316 µM, first compound 0.00316 µM
[15] = second compound 0.316 µM, first compound 0.01 µM
[16] = second compound 0.316 µM, first compound 0.0316 µM
[17] = second compound 0.316 µM, first compound 0.1 µM
[18] = second compound 1 µM, first compound 0.000316 µM
[19] = second compound 1 µM, first compound 0.001 µM
[20] = second compound 1 µM, first compound 0.00316 µM
[21] = second compound 1 µM, first compound 0.01 µM
[22] = second compound 1 µM, first compound 0.0316 µM
[23] = second compound 1 µM, first compound 0.1 µM
[24] = second compound 3.16 µM, first compound 0.000316 µM
[25] = second compound 3.16 µM, first compound 0.001 µM
[26] = second compound 3.16 µM, first compound 0.00316 µM
[27] = second compound 3.16 µM, first compound 0.01 µM
[28] = second compound 3.16 µM, first compound 0.0316 µM
[29] = second compound 3.16 µM, first compound 0.1 µM
[30] = second compound 10 µM, first compound 0.000316 µM
[31] = second compound 10 µM, first compound 0.001 µM
[32] = second compound 10 µM, first compound 0.00316 µM
[33] = second compound 10 µM, first compound 0.01 µM
[34] = second compound 10 µM, first compound 0.0316 µM
[35] = second compound 10 µM, first compound 0.1 µM

Compound: CC(C)CC(NC(=O)CNC(=O)c1cc(Cl)ccc1Cl)B1OC(=O)CC(CC(=O)O)(C(=O)O)O1 (configuration not stated) + NC1CC1c1ccc(-c2cccc(O)c2)cc1
IC50 [1]: 23.6 nM
IC50 [2]: 23.8 nM
IC50 [3]: 25.9 nM
IC50 [4]: 19.5 nM
IC50 [5]: 17.7 nM
viability, T/C [6]: 101%
viability, T/C [7]: 108%
viability, T/C [8]: 97.9%
viability, T/C [9]: 84.5%
viability, T/C [10]: 38.3%
viability, T/C [11]: 2.37%
viability, T/C [12]: 109%
viability, T/C [13]: 104%
viability, T/C [14]: 102%
viability, T/C [15]: 81.3%
viability, T/C [16]: 39.8%
viability, T/C [17]: 2.3%
viability, T/C [18]: 97.3%
viability, T/C [19]: 93.8%
viability, T/C [20]: 96.2%
viability, T/C [21]: 81.3%
viability, T/C [22]: 43.4%
viability, T/C [23]: 3.84%
viability, T/C [24]: 101%
viability, T/C [25]: 94.7%
viability, T/C [26]: 88.9%
viability, T/C [27]: 80.4%
viability, T/C [28]: 28.5%
viability, T/C [29]: 4.76%
viability, T/C [30]: 90.3%
viability, T/C [31]: 88.9%
viability, T/C [32]: 81%
viability, T/C [33]: 64.9%
viability, T/C [34]: 34.9%
viability, T/C [35]: 2.76%

Compound: CCN(c1cc(-c2ccc(CN3CCOCC3)cc2)cc(C(=O)NCc2c(C)cc(C)[nH]c2=O)c1C)C1CCOCC1 + NC1CC1c1ccc(-c2cccc(O)c2)cc1
IC50 [1]: > 3000 nM
IC50 [2]: > 3000 nM
IC50 [3]: > 3000 nM
IC50 [4]: > 3000 nM
IC50 [5]: > 3000 nM
viability, T/C (second compound 0.1 µM, first compound 0.00949 µM): 102%
viability, T/C (second compound 0.1 µM, first compound 0.03 µM): 104%
viability, T/C (second compound 0.1 µM, first compound 0.0949 µM): 104%
viability, T/C (second compound 0.1 µM, first compound 0.3 µM): 106%
viability, T/C (second compound 0.1 µM, first compound 0.949 µM): 94.2%
viability, T/C (second compound 0.1 µM, first compound 3 µM): 88.9%
viability, T/C (second compound 0.316 µM, first compound 0.00949 µM): 104%
viability, T/C (second compound 0.316 µM, first compound 0.03 µM): 102%
viability, T/C (second compound 0.316 µM, first compound 0.0949 µM): 104%
viability, T/C (second compound 0.316 µM, first compound 0.3 µM): 103%
viability, T/C (second compound 0.316 µM, first compound 0.949 µM): 105%
viability, T/C (second compound 0.316 µM, first compound 3 µM): 95.5%
viability, T/C (second compound 1 µM, first compound 0.00949 µM): 92.1%
viability, T/C (second compound 1 µM, first compound 0.03 µM): 96.3%
viability, T/C (second compound 1 µM, first compound 0.0949 µM): 104%
viability, T/C (second compound 1 µM, first compound 0.3 µM): 90.2%
viability, T/C (second compound 1 µM, first compound 0.949 µM): 93.4%
viability, T/C (second compound 1 µM, first compound 3 µM): 87.7%
viability, T/C (second compound 3.16 µM, first compound 0.00949 µM): 93%
viability, T/C (second compound 3.16 µM, first compound 0.03 µM): 99%
viability, T/C (second compound 3.16 µM, first compound 0.0949 µM): 95.3%
viability, T/C (second compound 3.16 µM, first compound 0.3 µM): 94.9%
viability, T/C (second compound 3.16 µM, first compound 0.949 µM): 90.2%
viability, T/C (second compound 3.16 µM, first compound 3 µM): 81.8%
viability, T/C (second compound 10 µM, first compound 0.00949 µM): 92.6%
viability, T/C (second compound 10 µM, first compound 0.03 µM): 87.8%
viability, T/C (second compound 10 µM, first compound 0.0949 µM): 91.8%
viability, T/C (second compound 10 µM, first compound 0.3 µM): 86.7%
viability, T/C (second compound 10 µM, first compound 0.949 µM): 82.7%
viability, T/C (second compound 10 µM, first compound 3 µM): 79%

Compound: CC[C@@]1(O)C(=O)OCc2c1cc1n(c2=O)Cc2cc3c(CN(C)C)c(O)ccc3nc2-1 + NC1CC1c1ccc(-c2cccc(O)c2)cc1
IC50 [1]: 8.38 nM
IC50 [2]: 8.87 nM
IC50 [3]: 10.5 nM
IC50 [4]: 13.3 nM
IC50 [5]: 13.2 nM
viability, T/C [6]: 110%
viability, T/C [7]: 101%
viability, T/C [8]: 84.9%
viability, T/C [9]: 43.3%
viability, T/C [10]: 13.4%
viability, T/C [11]: 2.49%
viability, T/C [12]: 111%
viability, T/C [13]: 103%
viability, T/C [14]: 86.2%
viability, T/C [15]: 45.2%
viability, T/C [16]: 14.9%
viability, T/C [17]: 2.48%
viability, T/C [18]: 101%
viability, T/C [19]: 98.9%
viability, T/C [20]: 83.5%
viability, T/C [21]: 52.2%
viability, T/C [22]: 16.3%
viability, T/C [23]: 2.84%
viability, T/C [24]: 97%
viability, T/C [25]: 94%
viability, T/C [26]: 81.2%
viability, T/C [27]: 60.1%
viability, T/C [28]: 23.7%
viability, T/C [29]: 4.48%
viability, T/C [30]: 95.1%
viability, T/C [31]: 82.3%
viability, T/C [32]: 74.2%
viability, T/C [33]: 57.1%
viability, T/C [34]: 31.4%
viability, T/C [35]: 9.59%

IC50 (curve of compound): 16.9 nM and 10 nM
Compound: COc1cc(Nc2ncc3c(n2)-c2ccc(Cl)cc2C(c2c(F)cccc2OC)=NC3)ccc1C(=O)O
viability, T/C (compound 0.00316 µM): 95.4% and 84.5%
viability, T/C (compound 0.01 µM): 64.5% and 50%
viability, T/C (compound 0.0316 µM): 32.7% and 30%
viability, T/C (compound 0.1 µM): 22.9% and 20.4%
viability, T/C (compound 0.316 µM): 22.6% and 16.1%
viability, T/C (compound 1 µM): 19.7% and 15.5%

Source: PubChem BioAssay AID1918955 (Molecular Pharmacology Branch, DTP, NCI, 2023)
